These compounds were tested against Urease (Glycine max, UniProt Q949H4) (assay: Urease Inhibition Assay). Details: pH 7; 37 °C.
Protocol: The inhibition studies of soybean urease were initiated with boric acid and boronic acids (butylboronic acid, 4-bromophenylboronic acid, and phenylboronic acid). Also, heavy metal ions (HgCl2, AgCl, and Cu(CH3COO)2) and sodium salts of mineral acids (NaF, NaCl, NaNO3, and Na2SO4) were investigated for their inhibitory effects. Stock solutions of inhibitors, except for 4-bromophenylboronicacid, were prepared in 0.05 M Tris-acetate buffer, pH 7.0, and were suitably diluted for experiments, whereas a stock solution of 4-bromophenylboronic acid was prepared in absolute ethanol and subsequently diluted in respective buffer. The activity assay was carried out at standard conditions as described earlier in the presence of varying concentrations of inhibitors. The yellow-orange colored solution was measured at 405 nm on a Unicam UV-2 spectrophotometer. The amount of NH3 liberated in the reaction mixture was estimated by calibrating Nessler's reagent with standard NH4Cl solution. One enzyme unit is defined as the amount of urease required to liberate 1 μmol of ammonia per minute under our test conditions (0.1 M urea, 0.05 M Trisacetatebuffer, pH 7.0, 37°C).

Chain of Urease (Q949H4 whole entry): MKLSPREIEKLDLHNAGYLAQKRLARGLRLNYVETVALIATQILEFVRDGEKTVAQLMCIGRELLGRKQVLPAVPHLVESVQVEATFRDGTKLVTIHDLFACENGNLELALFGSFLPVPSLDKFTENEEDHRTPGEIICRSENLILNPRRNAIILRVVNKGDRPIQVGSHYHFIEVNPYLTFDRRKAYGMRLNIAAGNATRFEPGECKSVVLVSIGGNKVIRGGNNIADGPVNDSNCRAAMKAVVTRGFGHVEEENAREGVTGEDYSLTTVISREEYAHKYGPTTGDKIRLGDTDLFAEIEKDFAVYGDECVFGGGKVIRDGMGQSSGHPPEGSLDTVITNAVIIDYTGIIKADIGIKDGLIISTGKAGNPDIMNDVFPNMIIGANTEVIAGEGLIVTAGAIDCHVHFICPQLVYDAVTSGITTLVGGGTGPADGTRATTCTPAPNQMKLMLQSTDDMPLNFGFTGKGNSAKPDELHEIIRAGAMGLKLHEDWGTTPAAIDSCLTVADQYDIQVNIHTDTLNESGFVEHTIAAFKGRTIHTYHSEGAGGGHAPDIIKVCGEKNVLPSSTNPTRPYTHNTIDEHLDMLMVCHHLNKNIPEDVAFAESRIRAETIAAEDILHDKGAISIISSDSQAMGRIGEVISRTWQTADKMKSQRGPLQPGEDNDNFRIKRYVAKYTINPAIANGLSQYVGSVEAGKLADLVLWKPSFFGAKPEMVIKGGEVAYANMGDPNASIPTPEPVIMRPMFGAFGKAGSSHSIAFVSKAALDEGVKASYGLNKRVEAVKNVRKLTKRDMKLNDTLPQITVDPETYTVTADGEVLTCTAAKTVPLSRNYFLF

Row | Compound | Ki [µM]
1 | OB(O)O [Boric acid] | 200
2 | CCCCB(O)O [Borinic acid derivative] | 1500
3 | OB(O)c1ccccc1 [Phenylboronic acid, 22] | 2000
4 | OB(O)c1ccc(Br)cc1 [4-bromo phenyl boronic acid] | 220

— BindingDB's records for doi:10.3109/14756360903468155 (Banaras Hindu University, 2010)
